In patent publication US20060167057A1, “Compounds for the treatment of CNS and amyloid associated diseases” (priority 2004, published 2006):

Target: T1, L1 transport system (large neutral amino acid carrier, L1-system carrier) (Rattus norvegicus, UniProt Q63016)
T1 construct: functionality of their endogenous transporters such as the L1-system carrier; endogenous in cells; host or cells: rat primary cerebrovascular (brain microcapillary) endothelial cells, RBEC
Experiment: Competitive binding assay to the brain L1 transport system (L-[U-14C]phenylalanine on rat primary cerebrovascular endothelial cells)
Conditions: for Status of Binding: compounds of Example 4, 10^−6, 10^−5 and 10^−4, Δ versus phenylalanine
Method: Compound samples in PBS (without Ca^+2, Mg^+2)-glucose 30 mM-HEPES 10 mM—DMSO 1% as prepared in Example 1 were thawed and left for at least 30 minutes at 20-23° C. before preparation of the following sub-dilutions for the competitive binding assay: • 200 μL of the stock solution were added to 800 μL PBS (without Ca^+2, Mg^+2)-Glucose-HEPES-1% DMSO (PBSD-1) [diluted 1:5 for a final 1:5 dilution] • 100 μL (1/5 dilution above) were added to 900 μL PBSD-1 [diluted 1:10 for a final 1:50 dilution] • 100 μL (1/50 dilution above) were added to 900 μL PBSD-1 [diluted 1:10 for a final 1:500 dilution]
These sub-dilutions were used immediately or stored overnight at 4° C. before the competitive binding assay. A volume of 45 μL of each of the compound dilutions (1:5, 1:50, 1:500) in PBSD-1 was added to the appropriate wells in the dilution plate.
Brains from sixty 24-day-old rats were dissected individually on a sterile lint moistened with ice cold Hanks' balanced salt solution (Gibco BRL, Grand Island, N.Y.) containing 10 mM HEPES (medium 1) supplemented with 0.1% BSA. Cerebellum, striatum, optic nerves, and brain stem (white matter) were removed. After a mid-sagittal section of the brain, the meninges and leptomeningeal debris were removed by rolling a sterile dry cotton swab on the cortices. (Ichikawa N, Naora K, Hirano H, Hashimoto M, Masumura S, and Iwamoto K (1996). Isolation and primary culture of rat cerebral microvascular endothelial cells for studying drug transport in vitro. J Pharmacol Toxicol Meth 36: 45-52.). Clean cortices were minced in pieces of ≈2 mm^3 in 15 mL of ice-cold medium 1-0.1% BSA. The preparation was divided into 4 sterile pre-weighed tubes and centrifuged at 330× g at 20-25° C. for 5 min. Tubes were weighed and pre-warmed (37° C.) and medium 1 with 0.5% BSA containing 0.3% collagenase and 10 μg/mL DNAse 1 (Roche, Laval, Quebec, Canada) were added to each tube (1 mL/g of tissue).
The brain-collagenase mixture was vigorously agitated in a water bath at 37° C. for 90 min. Fifteen min before the end of the digestion, the tissue was homogenized using a 10-mL pipette until a creamy mixture was obtained (≈20 aspirations). Cells were washed by adding medium 1 with 0.1% BSA to the homogenate (26 mL/tube) and centrifuged at 100× g at 20-25° C. for 7 min. This washing step was repeated 3 more times, once for 5 min and twice for 3 min. Each pellet was re-suspended in 25 mL of a 15% dextran solution prepared in medium 1 with 0.1% BSA and centrifuged at 3200× g at 4° C. for 25 min to isolate vessels from neural tissue and dextran layers. Vascular pellets were re-suspended in 5 mL Ca^++—Mg^++-free-medium 1 with 0.1% BSA (medium 2) at 20-25° C. and transferred in a 50-mL tube. Remaining vessels were collected by rinsing the tubes and pooling the rinsing suspension. (Rupnick M A, Carey A, and Williams S K (1988). Phenotypic diversity in cultured cerebral microvascular endothelial cells in vitro. Cell Develop Biol 24: 435-444.)
The vascular preparation was filtered and rinsed (20 mL of medium 2) through a sterile 355-μm mesh. The 355-μm filtrate was sequentially filtered twice (20 mL of medium 2) through sterile 112-μm meshes and rinsed (Stanimirovic D B, Wong J, Ball R, and Durkin J P (1995). Free radical-induced endothelial membrane dysfunction at the site of the blood-brain barrier: relationship between lipid peroxidation, Na,K-ATPase activity, and ^51Cr release. Neurochem Res 20:1417-1427.) and the latter filtrate was filtered and rinsed through a sterile 20-μm mesh. A final step of filtration and rinse was repeated through a double layer of 20-μm meshes. All 20-μm meshes, which retained the microcapillaries, were then transferred into a 50-mL tube containing 20 mL of a 0.1% collagenase/dispase (Roche) solution in medium 2 supplemented with 10 μg/mL DNAse 1 and 0.147 μg/mL tosyl-lysine-chloromethyl-ketone (Sigma Chemical Co., Oakville, Ontario, Canada) (medium 3).

T1 sequence (Q63016 whole entry): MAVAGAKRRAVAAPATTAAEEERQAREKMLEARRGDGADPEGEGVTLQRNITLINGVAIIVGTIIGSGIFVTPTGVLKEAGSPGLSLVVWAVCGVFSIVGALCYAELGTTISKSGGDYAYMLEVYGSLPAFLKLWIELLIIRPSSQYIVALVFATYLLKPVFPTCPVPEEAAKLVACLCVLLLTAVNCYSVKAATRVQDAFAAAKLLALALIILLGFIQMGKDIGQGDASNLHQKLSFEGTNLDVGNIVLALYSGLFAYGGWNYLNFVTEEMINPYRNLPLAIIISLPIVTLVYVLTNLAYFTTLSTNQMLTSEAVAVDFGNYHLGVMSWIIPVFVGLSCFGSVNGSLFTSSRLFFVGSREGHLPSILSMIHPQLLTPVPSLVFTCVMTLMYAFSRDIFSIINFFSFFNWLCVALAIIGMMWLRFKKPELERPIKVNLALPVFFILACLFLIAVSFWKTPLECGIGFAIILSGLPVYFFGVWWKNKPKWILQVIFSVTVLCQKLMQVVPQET
T1 sequence (Q794F9 whole entry partner): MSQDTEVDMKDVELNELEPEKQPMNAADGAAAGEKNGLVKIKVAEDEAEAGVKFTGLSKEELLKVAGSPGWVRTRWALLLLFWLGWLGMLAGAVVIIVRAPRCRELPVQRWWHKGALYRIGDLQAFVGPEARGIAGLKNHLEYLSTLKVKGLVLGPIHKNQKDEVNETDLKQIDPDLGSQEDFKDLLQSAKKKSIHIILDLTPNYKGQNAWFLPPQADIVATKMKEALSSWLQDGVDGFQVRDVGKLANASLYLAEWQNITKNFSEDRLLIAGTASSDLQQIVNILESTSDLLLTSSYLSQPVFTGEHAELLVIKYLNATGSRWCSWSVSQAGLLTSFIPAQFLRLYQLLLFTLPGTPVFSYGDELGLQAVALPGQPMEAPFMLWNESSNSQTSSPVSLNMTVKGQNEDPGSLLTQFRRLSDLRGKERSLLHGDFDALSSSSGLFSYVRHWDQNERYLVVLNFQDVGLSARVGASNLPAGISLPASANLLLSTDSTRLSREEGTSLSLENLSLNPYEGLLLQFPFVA

Structure (SMILES) | Comparison with the Binding of Phenylalanine (10^−4 M) | Comparison with the Binding of Phenylalanine (10^−5 M) | Comparison with the Binding of Phenylalanine (10^−6 M) | Status of Binding
O=C(Nc1ccc(-c2ccccc2)cc1)NC(Cc1cccc(CSc2nc3ccccc3o2)n1)C(=O)O (stereo not shown) [Compound 63] | 0 (X < 0 Rank 0) | 0 (X < 0 Rank 0) | 1 (0 < X < 10 Rank 1) | 
N[C@@H](Cc1cccc(CSc2nccc(C(F)(F)F)n2)n1)C(=O)O [drawing 476] |  |  |  | 1 (1: −10 > Δ > −50%, lower binding affinity than phenylalanine)
N#CC1(c2ccccc2)CCN(Cc2ccc(-c3ccc(CC(N)C(=O)O)cc3)cc2)CC1 (stereo not shown) [Compound 147] | 0 (X < 0 Rank 0) | 0 (X < 0 Rank 0) | 1 (0 < X < 10 Rank 1) | 
O=C(Nc1ccc(-c2ccccc2)cc1)NC(Cc1cccc(CSc2nnnn2-c2ccc(O)cc2)c1)C(=O)O (stereo not shown) [Compound 51] | 0 (X < 0 Rank 0) | 3 (X > 20 Rank 3) | 2 (10 < X < 20 Rank 2) | 
N[C@@H](Cc1ccccc1)C(=O)NC(Cc1cccc(CSc2cncc3c(C(F)(F)F)cccc23)n1)C(=O)O (stereo partly shown) [Compound 26] | 0 (X < 0 Rank 0) | 0 (X < 0 Rank 0) | 1 (0 < X < 10 Rank 1) | 
NC(Cc1cccc(-c2cccc(Sc3nc4cc([N+](=O)[O-])ccc4s3)c2)c1)C(=O)O (stereo not shown) [Compound 109] | 2 (10 < X < 20 Rank 2) | 3 (X > 20 Rank 3) | 3 (X > 20 Rank 3) | 
N[C@@H](Cc1cccc(C[S+]([O-])c2nnnn2-c2ccccc2)n1)C(=O)O (stereo partly shown) [drawing 479] |  |  |  | 1 (1: −10 > Δ > −50%, lower binding affinity than phenylalanine)
NC(Cc1cccc(CSc2ccc3ccccc3n2)c1)C(=O)O (stereo not shown) [Compound 114] | 0 (X < 0 Rank 0) | 0 (X < 0 Rank 0) | 2 (10 < X < 20 Rank 2) | 
NC(Cc1cccc(-c2cccc(Sc3nnnn3CC(=O)O)c2)c1)C(=O)O (stereo not shown) [Compound 138] | 0 (X < 0 Rank 0) | 0 (X < 0 Rank 0) | 1 (0 < X < 10 Rank 1) | 
N[C@@H](Cc1cccc(CSc2nnnn2-c2ccc(O)cc2)c1)C(=O)O [drawing 480] |  |  |  | 3 (3: Δ > 10%, significantly higher binding affinity than phenylalanine)
CN(C)CCn1nnnc1SCc1cccc(CC(N)C(=O)O)c1 (stereo not shown) [Compound 73] | 1 (0 < X < 10 Rank 1) | 3 (X > 20 Rank 3) | 1 (0 < X < 10 Rank 1) | 
NC(Cc1ccc(-c2ccc(CSc3nc4ccccc4c(=O)[nH]3)cc2)cc1)C(=O)O (stereo not shown) [Compound 155] | 0 (X < 0 Rank 0) | 0 (X < 0 Rank 0) | 2 (10 < X < 20 Rank 2) | 
NC(Cc1cccc(CSc2nccc(O)n2)c1)C(=O)O (stereo not shown) [Compound 16] | 0 (X < 0 Rank 0) | 1 (0 < X < 10 Rank 1) | 0 (X < 0 Rank 0) | 
NC(Cc1cccc(CN2CC=CCC2)n1)C(=O)O (stereo not shown) [Compound 160] | 0 (X < 0 Rank 0) | 0 (X < 0 Rank 0) | 1 (0 < X < 10 Rank 1) | 
N[C@@H](Cc1cccc(CSc2ncnc3[nH]ncc23)n1)C(=O)O [drawing 472] |  |  |  | 0 (0: Δ ≦ −50%, no binding or very low binding affinity)
NC(Cc1ccc(-c2ccc(CN3CCN(c4cccc(Cl)c4)CC3)cc2)cc1)C(=O)O (stereo not shown) [Compound 116] | 1 (0 < X < 10 Rank 1) | 2 (10 < X < 20 Rank 2) | 2 (10 < X < 20 Rank 2) | 

Continued, in another order:

Comparison with the Binding of Phenylalanine (10^−4 M) | Comparison with the Binding of Phenylalanine (10^−5 M) | Comparison with the Binding of Phenylalanine (10^−6 M) | Structure (SMILES) | Status of Binding
0 (X < 0 Rank 0) | 0 (X < 0 Rank 0) | 1 (0 < X < 10 Rank 1) | NC(=O)C(N)Cc1cccc(CSc2ncnc3[nH]ncc23)n1 (stereo not shown) [Compound 34] | 
0 (X < 0 Rank 0) | 0 (X < 0 Rank 0) | 1 (0 < X < 10 Rank 1) | NC(Cc1cccc(CN2CCN(c3ncccn3)CC2)n1)C(=O)O (stereo not shown) [Compound 158] | 
0 (X < 0 Rank 0) | 0 (X < 0 Rank 0) | 1 (0 < X < 10 Rank 1) | NC(Cc1cccc(CN2CCN(c3cccc(Cl)c3)CC2)c1)C(=O)O (stereo not shown) [Compound 71] | 
0 (X < 0 Rank 0) | 0 (X < 0 Rank 0) | 1 (0 < X < 10 Rank 1) | NC(Cc1cccc(-c2cccc(Sc3nc(-c4ccccc4)c(-c4ccccc4)o3)c2)c1)C(=O)O (stereo not shown) [Compound 134] | 
2 (10 < X < 20 Rank 2) | 3 (X > 20 Rank 3) | 3 (X > 20 Rank 3) | O=C(Nc1ccc(-c2ccccc2)cc1)NC(Cc1cccc(CSc2nnc(-c3ccccc3)o2)c1)C(=O)O (stereo not shown) [Compound 49] | 
0 (X < 0 Rank 0) | 1 (0 < X < 10 Rank 1) | 1 (0 < X < 10 Rank 1) | NC(Cc1cccc(-c2cccc(Sc3nc(-c4ccccc4)c(-c4ccccc4)[nH]3)c2)c1)C(=O)O (stereo not shown) [Compound 74] | 
0 (X < 0 Rank 0) | 0 (X < 0 Rank 0) | 3 (X > 20 Rank 3) | NC(=O)C(N)Cc1cccc(CSc2ncc[nH]2)c1 (stereo not shown) [Compound 6] | 
0 (X < 0 Rank 0) | 1 (0 < X < 10 Rank 1) | 2 (10 < X < 20 Rank 2) | NC(=O)C(N)Cc1cccc(CSc2nnc(-c3ccncc3)o2)c1 (stereo not shown) [Compound 11] | 
0 (X < 0 Rank 0) | 0 (X < 0 Rank 0) | 1 (0 < X < 10 Rank 1) | NC(Cc1ccc(-c2ccc(CSc3ncccc3C(=O)O)cc2)cc1)C(=O)O (stereo not shown) [Compound 93] | 
0 (X < 0 Rank 0) | 3 (X > 20 Rank 3) | 2 (10 < X < 20 Rank 2) | NC(=O)C(N)Cc1cccc(CSc2nnc(-c3ccccc3)[nH]2)c1 (stereo not shown) [Compound 14] | 
2 (10 < X < 20 Rank 2) | 3 (X > 20 Rank 3) | 3 (X > 20 Rank 3) | NC(Cc1cccc(-c2cccc(N3CCN(c4cccc(Cl)c4)CC3)c2)c1)C(=O)O (stereo not shown) [Compound 101] | 
0 (X < 0 Rank 0) | 0 (X < 0 Rank 0) | 2 (10 < X < 20 Rank 2) | NC(Cc1cccc(CSc2ncccc2C(=O)O)c1)C(=O)O (stereo not shown) [Compound 137] | 
2 (10 < X < 20 Rank 2) | 3 (X > 20 Rank 3) | 3 (X > 20 Rank 3) | CCOC(=O)c1cnc(SCc2cccc(CC(N)C(=O)O)c2)[nH]c1=O (stereo not shown) [Compound 131] | 
